Patent publication US20260217708A1, “FUSED BENZAZEPINE DERIVATIVES FOR USE IN THE TREATMENT OF CANCER AND EPILEPSY” (UCB BIOPHARMA SRL, priority 2023, published 2026)

Tests used:
[1] = biological target: T1, system Xc^− (Homo sapiens, UniProt Q9UPY5); assay: Cystine-induced glutamate release assay; format: cell-based; set-up: endogenous in cells; host or cells: H4 cells; details: H4 cells, sodium-free HEPES buffer, 50 μM L-Cystine, 2 hours, Amplex Red glutamate readout; read-out: pIC50 Cystine-induced glutamate release assay (converted)
T1 sequence (Q9UPY5 1-501): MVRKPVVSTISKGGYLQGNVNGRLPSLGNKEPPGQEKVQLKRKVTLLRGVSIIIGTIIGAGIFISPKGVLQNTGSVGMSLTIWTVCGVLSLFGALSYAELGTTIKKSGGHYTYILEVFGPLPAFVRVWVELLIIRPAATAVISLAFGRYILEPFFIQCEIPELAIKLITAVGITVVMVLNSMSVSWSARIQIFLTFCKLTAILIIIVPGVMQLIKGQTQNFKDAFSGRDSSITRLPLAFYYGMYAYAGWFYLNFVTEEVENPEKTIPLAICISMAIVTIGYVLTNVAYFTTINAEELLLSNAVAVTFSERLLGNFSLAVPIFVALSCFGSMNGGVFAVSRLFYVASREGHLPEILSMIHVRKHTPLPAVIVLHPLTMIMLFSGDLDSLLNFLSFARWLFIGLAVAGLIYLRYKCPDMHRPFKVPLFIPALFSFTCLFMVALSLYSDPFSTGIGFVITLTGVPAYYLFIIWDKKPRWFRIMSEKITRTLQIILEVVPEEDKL
T1 sequence (P08195 1-529 partner): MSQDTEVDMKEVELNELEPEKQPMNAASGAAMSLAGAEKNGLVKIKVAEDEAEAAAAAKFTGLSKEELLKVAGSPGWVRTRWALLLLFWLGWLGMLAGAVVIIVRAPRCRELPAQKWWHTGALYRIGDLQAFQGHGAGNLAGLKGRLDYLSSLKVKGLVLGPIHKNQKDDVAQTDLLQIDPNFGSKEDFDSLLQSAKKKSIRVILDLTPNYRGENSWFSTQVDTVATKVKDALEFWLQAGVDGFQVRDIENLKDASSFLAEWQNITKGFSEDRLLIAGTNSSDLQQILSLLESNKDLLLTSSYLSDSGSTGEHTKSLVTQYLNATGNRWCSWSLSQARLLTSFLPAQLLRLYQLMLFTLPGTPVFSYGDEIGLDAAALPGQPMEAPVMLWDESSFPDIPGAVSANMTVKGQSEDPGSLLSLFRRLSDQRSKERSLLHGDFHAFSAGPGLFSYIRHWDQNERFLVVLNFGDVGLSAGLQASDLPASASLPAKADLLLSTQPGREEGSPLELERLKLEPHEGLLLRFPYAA
Procedure, shortened: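 IC50 (reported as pIC50) normalized to DMSO 1% and Erastin 50 μM controls, from Amplex Red fluorescence of glutamate exported into supernatant. H4 cells were washed into sodium-free buffer to exclude EAAT transport, then given compound with 50 μM L-cystine for 2 h in the incubator.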

[2] = biological target: T1, system Xc^−; assay: [^14C]L-Cystine uptake assay; format: cell-based; set-up: endogenous in cells; host or cells: H4 cells; details: H4 cells, sodium-free HEPES buffer, 0.5 μM L-[14C]Cystine and 4.5 μM L-Cystine, 1 hour at 37° C.; read-out: pIC50 [^14C] L-Cystine uptake assay (converted)
Procedure, shortened: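 Compound effect is given as pIC50, taken between controls of 1% DMSO and 50 μM Erastin. Human H4 cells were pretreated 15 min with compound in sodium-free buffer, then took up 0.5 μM [14C]cystine with 4.5 μM cold cystine for 1 hour at 37° C, read by scintillation proximity counting.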

SMILES | IC50 [1] [nM] | IC50 [2] [nM]
COc1cc2c(c(F)n1)-c1ncccc1C(C)C(=O)N2CC(=O)Nc1ccc(Cl)c(F)c1 (single isomer, unassigned) [#413, N-(4-chloro-3-fluoro-phenyl)-2-[15-fluoro-13-methoxy-8-methyl-9-oxo-3,10,14-triazatricyclo[9.4.0.0^2,7]pentadeca-1(11),2,4,6,12,14-hexaen-10-yl]acetamide] | 39.8 to 100 | 15.8 to 39.8
Cc1cc2c(cc1C)N(CC(=O)Nc1ccc(Cl)c(F)c1)C(=O)Cc1cccnc1-2 [#1, N-(4-chloro-3-fluoro-phenyl)-2-(9,10-dimethyl-6-oxo-5-H-pyrido[3,2-d][1]benzazepin-7-yl)acetamide] | 100 to 501 | 39.8 to 100
Cc1cc2c(cc1C)N(CC(=O)Nc1ccc(Cl)c(F)c1)C(=O)Cc1ccncc1-2 [#2, N-(4-chloro-3-fluoro-phenyl)-2-(9,10-dimethyl-6-oxo-5H-pyrido[4,3-d][1]benzazepin-7-yl)acetamide] | 100 to 501 | 15.8 to 39.8
Cc1cc2c(cc1C)N(CC(=O)Nc1ccc(Cl)c(F)c1)C(=O)Cc1ncccc1-2 [#3, N-(4-chloro-3-fluoro-phenyl)-2-(9,10-dimethyl-6-oxo-5-H-pyrido[2,3-d][1]benzazepin-7-yl)acetamide] | 100 to 501 | 39.8 to 100
Cc1ccc2c(n1)CC(=O)N(CC(=O)Nc1ccc(Cl)c(F)c1)c1cc(C)c(C)cc1-2 [#4, N-(4-chloro-3-fluoro-phenyl)-2-(3,9,10-trimethyl-6-oxo-5-H-pyrido[2,3-d][1]benzazepin-7-yl)acetamide] | 100 to 501 | 100 to 501
Cc1cc2c(cc1C)-n1nccc1CC(=O)N2CC(=O)Nc1ccc(C(F)(F)F)cc1 [#5, 2-(8,9-dimethyl-5-oxo-4H-pyrazolo[5,1-d][1,5]benzodiazepin-6-yl)-N-[4-(trifluoromethyl)phenyl]acetamide] | 100 to 501 | 39.8 to 100
Cc1cc2c(cn1)-c1cnccc1CC(=O)N2CC(=O)Nc1ccc(C(F)(F)F)cc1 [#6, 2-(5-methyl-9-oxo-4,8,14-triazatricyclo[9.4.0.0^2,7]pentadeca-1(11),2(7),3,5,12,14-hexaen-8-yl)-N-[4-(trifluoromethyl)phenyl]acetamide] | 100 to 501 | 100 to 501
O=C(CN1C(=O)Cc2cccnc2-c2cnc(Cl)cc21)Nc1ccc(C(F)(F)F)cc1 [#7, 2-(13-chloro-9-oxo-3,10,14-triazatricyclo[9.4.0.0^2,7]pentadeca-1(11),2(7),3,5,12,14-hexaen-10-yl)-N-[4-(trifluoromethyl)phenyl]acetamide] | 100 to 501 | 39.8 to 100
Cc1cc2c(cc1C)-n1ccnc1CC(=O)N2CC(=O)Nc1ccc(C(F)(F)F)cc1 [#8, 2-(8,9-dimethyl-5-oxo-4H-imidazo[1,2-a][1,5]benzodiazepin-6-yl)-N-[4-(trifluoromethyl)phenyl]acetamide] | 100 to 501 | 39.8 to 100
Cc1cc2c(cc1C)N(CC(=O)Nc1ccc(C(F)(F)F)cc1)C(=O)Cc1cncnc1-2 [#9, 2-(9,10-dimethyl-6-oxo-5H-pyrimido[5,4-d][1]benzazepin-7-yl)-N-[4-(trifluoromethyl)phenyl]acetamide] | 100 to 501 | 39.8 to 100
Cc1cc2c(cc1C)N(CC(=O)Nc1ccc(C(F)(F)F)cc1)C(=O)Cc1ccc(Cl)nc1-2 [#10, 2-(2-chloro-9,10-dimethyl-6-oxo-5H-pyrido[3,2-d][1]benzazepin-7-yl)-N-[4-(trifluoromethyl)phenyl]acetamide] | 100 to 501 | 100 to 501
O=C(CN1C(=O)Cc2ccncc2-c2cnc(Cl)cc21)Nc1ccc(C(F)(F)F)cc1 [#11, 2-(5-chloro-9-oxo-4,8,14-triazatricyclo[9.4.0.0^2,7]pentadeca-1(11),2(7),3,5,12,14-hexaen-8-yl)-N-[4-(trifluoromethyl)phenyl]acetamide] | 100 to 501 | 100 to 501
Cc1cc2c(cn1)-c1ncccc1CC(=O)N2CC(=O)Nc1ccc(C(F)(F)F)cc1 [#12, 2-(13-methyl-9-oxo-3,10,14-triazatricyclo[9.4.0.0^2,7]pentadeca-1(11),2(7),3,5,12,14-hexaen-10-yl)-N-[4-(trifluoromethyl)phenyl]acetamide] | 100 to 501 | 100 to 501

Second part, the compound after the results:

IC50 [1] [nM] | IC50 [2] [nM] | SMILES
39.8 to 100 | 15.8 to 39.8 | CC1C(=O)N(CC(=O)Nc2ccc(Cl)c(F)c2)c2cc(Cl)cc(F)c2-c2nccnc21 (single isomer, unassigned) [#414, 2-[9-chloro-11-fluoro-5-methyl-6-oxo-5H-pyrazino[2,3-d][1]benzazepin-7-yl]-N-(4-chloro-3-fluoro-phenyl)acetamide]
< 15.8 | < 15.8 | COc1cnc2c(c1)-c1cnc(C)cc1N(CC(=O)Nc1ccc(Cl)c(F)c1)C(=O)C2C (single isomer, unassigned) [#415, N-(4-chloro-3-fluoro-phenyl)-2-[14-methoxy-5,10-dimethyl-9-oxo-4,8,12-triazatricyclo[9.4.0.0^2,7]pentadeca-1(15),2,4,6,11,13-hexaen-8-yl]acetamide]
15.8 to 39.8 | < 15.8 | CC1C(=O)N(CC(=O)Nc2ccc(C(F)F)cc2)c2cc(OC(F)F)nc(Cl)c2-c2cccnc21 (single isomer, unassigned) [#416, 2-[3-chloro-5-(difluoromethoxy)-10-methyl-9-oxo-4,8,12-triazatricyclo[9.4.0.0^2,7]pentadeca-1(15),2,4,6,11,13-hexaen-8-yl]-N-[4-(difluoromethyl)phenyl]acetamide]
39.8 to 100 | 39.8 to 100 | CC1C(=O)N(CC(=O)Nc2ccc(Cl)c(F)c2)c2cc(Cl)cc(F)c2-c2ncncc21 (single isomer, unassigned) [#418, 2-[9-chloro-11-fluoro-5-methyl-6-oxo-5H-pyrimido[5,4-d][1]benzazepin-7-yl]-N-(4-chloro-3-fluoro-phenyl)acetamide]
15.8 to 39.8 | < 15.8 | CC1C(=O)N(CC(=O)Nc2ccc(Cl)c(F)c2)c2ccnc(F)c2-c2cc(F)cnc21 (single isomer, unassigned) [#419, N-(4-chloro-3-fluoro-phenyl)-2-[3,14-difluoro-10-methyl-9-oxo-4,8,12-triazatricyclo[9.4.0.0^2,7]pentadeca-1(15),2,4,6,11,13-hexaen-8-yl]acetamide]
< 15.8 | < 15.8 | Cc1cc2c(cc1C#N)-c1cc(F)cnc1C(C)C(=O)N2CC(=O)Nc1ccc(C(F)F)cc1 (single isomer, unassigned) [#420, 2-[10-cyano-2-fluoro-5,9-dimethyl-6-oxo-5H-pyrido[2,3-d][1]benzazepin-7-yl]-N-[4-(difluoromethyl)phenyl]acetamide]
< 15.8 | < 15.8 | Cc1cc2c(c(Cl)n1)-c1cc(F)cnc1C(C)C(=O)N2CC(=O)Nc1ccc(C(C)(F)F)cc1 (single isomer, unassigned) [#423, 2-(3-chloro-14-fluoro-5,10-dimethyl-9-oxo-4,8,12-triazatricyclo[9.4.0.0^2,7]pentadeca-1(11),2,4,6,12,14-hexaen-8-yl)-N-[4-(1,1-difluoroethyl)phenyl]acetamide]
15.8 to 39.8 | 15.8 to 39.8 | Cc1cc2c(c(Cl)n1)-c1cc(F)cnc1C(C)C(=O)N2CC(=O)Nc1ccc(C(F)(F)F)cn1 (single isomer, unassigned) [#424, 2-(3-chloro-14-fluoro-5,10-dimethyl-9-oxo-4,8,12-triazatricyclo[9.4.0.0^2,7]pentadeca-1(11),2,4,6,12,14-hexaen-8-yl)-N-[5-(trifluoromethyl)-2-pyridyl]acetamide]
